In one experiment the test system is GSK-3α/β. Briefly: Western blot of phosphorylated GSK-3α/β forms in SweAPP N2a cells. The format is cell-based, murine. The settings on record: 20 μM. On the procedure:
Cultured cells or mouse brain were lysed in ice-cold lysis buffer described above, and an aliquot corresponding to 50 μg of total protein was electrophoretically separated using 12% Tris-HCl or 16.5% Tris-tricine gels. Electrophoresed proteins were then transferred to PVDF membranes, washed in dH2O, and blocked for 1 hr at ambient temperature in Tris-buffered saline (TBS; Bio-Rad) containing 5% (w/v) non-fat dry milk. After blocking, membranes were hybridized for 1 hr at ambient temperature with various primary antibodies. Membranes were then washed 3× for 5 min each in dH2O and incubated for 1 hr at ambient temperature with the appropriate HRP-conjugated secondary antibody (1:1,000). Antibodies were obtained against the amino-terminus and carboxyl-terminus of PS1 (Chemicon, Temecula, Calif.), amino-terminus and carboxyl-terminus of APP (22C11), actin (Roche, Basel, Switzerland), Aβ (6E10, 48G) (Signet Laboratories, Dedham, Mass.), phosphor-GSK3α (ser^21, clone BK202) (Upstate, Lake Placid, N.Y.), phospho-GSK3α/β (pTyr^279/216) (Sigma), phospho-GSK-3β (Ser^9) (Sigma) and total GSK-3α/β (Sigma). All antibodies were diluted in TBS containing 5% (w/v) of non-fat dry milk. Blots were developed using the luminol reagent (Pierce Biotechnology). Densitometric analysis was done as previously described using a FluorS Multiimager with Quantity One™ software (39). […] Antibodies used for Western blot included the APP-carboxyl-terminal antibody (1:50)), amino-terminal APP antibody (clone 22C11), or 6E10 (1:1,000), or actin antibody (1:1,500; as an internal reference control). γ-secretase activity was quantified in cell lysates using available kits based on secretase-specific peptides conjugated to fluorogenic reporter molecules.
The effect luteolin had on a variety of proteins related to and/or required for proper functioning of the γ-secretase complex was evaluated to establish the mechanism whereby luteolin modulates γ-secretase activity and subsequent Aβ generation. […]
Background: A western blot detects proteins with antibodies after separation by electrophoresis.

The next experiment has as its system PS1. Briefly: Western blot of PS1 C-terminal fragment phosphorylation in SweAPP N2a cells. The format is cell-based, murine. On the procedure:
Cultured cells or mouse brain were lysed in ice-cold lysis buffer described above, and an aliquot corresponding to 50 μg of total protein was electrophoretically separated using 12% Tris-HCl or 16.5% Tris-tricine gels. Electrophoresed proteins were then transferred to PVDF membranes, washed in dH2O, and blocked for 1 hr at ambient temperature in Tris-buffered saline (TBS; Bio-Rad) containing 5% (w/v) non-fat dry milk. After blocking, membranes were hybridized for 1 hr at ambient temperature with various primary antibodies. Membranes were then washed 3× for 5 min each in dH2O and incubated for 1 hr at ambient temperature with the appropriate HRP-conjugated secondary antibody (1:1,000). All antibodies were diluted in TBS containing 5% (w/v) of non-fat dry milk. Blots were developed using the luminol reagent (Pierce Biotechnology). Densitometric analysis was done as previously described using a FluorS Multiimager with Quantity One™ software. Immunoprecipitation was performed for detection of sAPP-α, sAPP-β and Aβ by incubating 200 μg of total protein of each sample with various sequential combinations of 6E10 (1:100) and/or 22C11 (1:100) antibodies overnight with gentle rocking at 4° C., and 10 μL of 50% protein A-Sepharose beads were then added to the sample (1:10; Sigma) prior to gentle rocking for an additional 4 hrs at 4° C. Following washes with 1× cell lysis buffer, samples were subjected to Western blot as described above. Antibodies used for Western blot included the APP-carboxyl-terminal antibody (1:50)), amino-terminal APP antibody (clone 22C11), or 6E10 (1:1,000), or actin antibody (1:1,500; as an internal reference control). γ-secretase activity was quantified in cell lysates using available kits (R&D Systems, Minneapolis, Minn.), based on secretase-specific peptides conjugated to fluorogenic reporter molecules.
The two bands of highest molecular weight, approximately 20 kD and 18 kD in size, represent phosphorylated PS1 CTFs with a smaller 16 kD band representing the more common CTF product indicative of PS1 endoproteolytic cleavage.
To confirm that the 20 kD and 18 kD bands were phosphorylated PS1 isoforms, SweAPP N2a cells were treated with luteolin (20 μM) prior to lysis and cell lysates incubated with calf intestine alkaline phosphatase (CIAP) (Fermentas, Hanover, Md.), to dephosphorylate any potential phosphorylated proteins, to eliminate skewing of electrophorectic mobilities. Following 30 minutes of incubation, the 20 kD band is not evident in the CIAP treated lysates, seen in FIGS. 21(A) through 22, and the 18 kD band reduced while endogenous CTF, 16 kD, appears to accumulate. When compared to lysates incubated with only reaction buffer, phosphorylated residues decrease in a time dependent manner, shown by the 20 kD CTF:16 kD CTF. […] Luteolin affects PS1 phosphorylation and may indicate a means by which γ-secretase activity may be regulated.
To determine if this phenomenon was specifically attributable to luteolin treatment or more generally in regards to GSK-3 inhibition, SweAPP N2a cells were treated with a range of doses of the GSK-3 inhibitor SB-415286 (BIOMOL®, Plymouth Meeting, Pa.). […] FIG. 24(B). GSK-3α and β was successfully knocked-down (>70%, data not shown) with siRNA in SweAPP N2a cells, substantiating the role of GSK-3α in this luteolin-mediated PS1 processing. […]

SMILES strings stand for the structures.

Regarding `O=c1cc(-c2ccc(O)c(O)c2)oc2cc(O)cc(O)c12` [luteolin], the “overall expression of GSK3-α or β” value in the experiment with GSK-3α/β (Western blot) is on record as “no significant changes”. Moreover, the “selectivity of GSK-3α over GSK-3β inactivation” value with GSK-3α/β (time course) is recorded as “selectively inactivates GSK-3α isoforms over β isoforms”. The “PS1 CTF phosphorylation (phospho-PS1 CTF to PS1 CTF ratio)” value in the experiment with PS1 is given as “PS1 CTF phosphorylation increases”. Also, the “full-length PS1 or PS1 NTF protein levels” value in the experiment on PS1 (range of doses, 4 hrs) is on record as “no significant effect”.

(Values after patent publication US8802638B1, “Flavonoid treatment of glycogen synthase kinase-based disease” (University of South Florida, priority 2007, dated 2014).)
